Assay [1] is filed under the species Rattus norvegicus. The assay can be described thus: animal or person. To be noted: sc, read-out: Inhibition.
Description: (§1) Inhibitory activity in apomorphine antagonism test at a dose of 20 mg/kg, sc
Assay [2] deals with Muscarinic acetylcholine receptor.
Description: Binding affinity against muscarinic (M) receptor
Assay [3] addresses Serotonin 2 (5-HT2) receptor (Rattus norvegicus, UniProt P30994+P08909+P14842).
Description: Binding affinity against serotonin 5-hydroxytryptamine 2 receptor
For another assay, the target named is D(1A) dopamine receptor (Rattus norvegicus, UniProt P18901).
For assay [4], the species on record is Rattus norvegicus. The assay can be described thus: animal or person. To be noted: sc.
Description: as §1

Sequence of D(1A) dopamine receptor (P18901 whole entry): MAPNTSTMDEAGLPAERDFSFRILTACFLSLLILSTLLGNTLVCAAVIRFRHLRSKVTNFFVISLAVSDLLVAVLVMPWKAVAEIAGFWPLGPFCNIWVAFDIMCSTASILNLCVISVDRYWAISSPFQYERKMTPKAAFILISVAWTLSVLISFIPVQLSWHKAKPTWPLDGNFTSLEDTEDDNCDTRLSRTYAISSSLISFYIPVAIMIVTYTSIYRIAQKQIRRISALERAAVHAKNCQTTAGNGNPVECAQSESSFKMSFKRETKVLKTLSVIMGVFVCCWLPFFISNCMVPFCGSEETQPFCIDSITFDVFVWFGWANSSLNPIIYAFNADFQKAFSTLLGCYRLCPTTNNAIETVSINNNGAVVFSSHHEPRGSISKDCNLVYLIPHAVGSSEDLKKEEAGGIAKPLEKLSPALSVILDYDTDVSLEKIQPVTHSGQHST
Description for D(1A) dopamine receptor: Binding affinity against dopamine receptor D1

A word on the Ki: it is the equilibrium dissociation constant of an inhibitor or competing ligand from its target. On to `CN1CCN(C2=Nc3cnccc3Sc3ccccc32)CC1`, for which the inhibition in vivo at 20 mg/kg in the assay listed under Rattus norvegicus [1] amounted to 0%. Also, the “-Log Ki” value in assay [2] was determined as 6.68; in assay [3] it was 6.55. Also, the Ki at D(1A) dopamine receptor is 15.5 µM.
Usually ED50 stands for the dose that gives a 50% effect, or the effect in half of the subjects. Compound `CN1CCN(C2=Nc3ccccc3Nc3ccc(Cl)cc32)CC1` [ISOCLOZAPINE] returned an ED50 in the assay listed under Rattus norvegicus [4] of 1.7 mg/kg.
For `CN1CCN(C2=Nc3cccnc3Sc3ccccc32)CC1`, the inhibition in vivo at 20 mg/kg in the assay listed under Rattus norvegicus [1] amounted to 0%. The “-Log Ki” value is 6.13 in assay [2] and 5.94 in assay [3]. Moreover, the Ki at D(1A) dopamine receptor was 8.13 µM.
Take `CN1CCN(C2=Nc3cc(Cl)ccc3Sc3ccccc32)CC1` [ISOCLOTHIAPINE]: the “-Log Ki” value in assay [3] amounted to 8.38.
Consider `CN1CCN(C2=Nc3cccnc3Sc3ccc(Cl)cc32)CC1`, for which, in the assay filed under Rattus norvegicus [1], the inhibition in vivo at 20 mg/kg came to 100%. Also, the “-Log Ki” value in assay [2] turned out to be 5.75; in assay [3], 7.35. Besides, the Ki on D(1A) dopamine receptor is 0.676 µM.
As to `Cc1ccc2c(c1)N=C(N1CCN(C)CC1)c1cccnc1O2`, in the assay filed under Rattus norvegicus [1], the inhibition in vivo at 20 mg/kg is 0%. Besides, the results for the “-Log Ki” value in assay [2] and in assay [3] were 5.42 and 7.01, respectively. The compound further showed a Ki at D(1A) dopamine receptor of 0.759 µM.
`CN1CCN(C2=Nc3cccnc3Oc3ccc(Cl)cc32)CC1`: the inhibition in vivo at 20 mg/kg in the assay filed under Rattus norvegicus [1] came to 100%. Further, the “-Log Ki” value in assay [2] is recorded as 5.86; in assay [3], 7.35. The affinity at D(1A) dopamine receptor corresponds to a Ki of 1.07 µM.
Consider `O=C(CCCN1CCC(O)(c2ccc(Cl)cc2)CC1)c1ccc(F)cc1` [HALOPERIDOL], for which the inhibition in vivo at 20 mg/kg in the assay filed under Rattus norvegicus [1] was 100%. The compound further returned an ED50 in the assay listed under Rattus norvegicus [4] of 0.14 mg/kg.
Take `CN1CCN(C2=Nc3cc(Cl)ccc3Oc3ncccc32)CC1`: the inhibition in vivo at 20 mg/kg in the assay listed under Rattus norvegicus [1] was 0%. The figures for the “-Log Ki” value in assay [2] and in assay [3] were 5.65 and 7.19, respectively. At D(1A) dopamine receptor, the Ki is 0.302 µM.
As to `CN1CCN(C2=Nc3cccnc3Oc3ccccc32)CC1`, the inhibition in vivo at 20 mg/kg in the assay listed under Rattus norvegicus [1] came to 0%. The results for the “-Log Ki” value in assay [2] and in assay [3] were 6.07 and 4.65, respectively.
`CN1CCN(C2=Nc3cc(Cl)ccc3Nc3ccccc32)CC1` [CLOZAPINE]: the inhibition in vivo at 20 mg/kg in the assay listed under Rattus norvegicus [1] came out at 0%.
As for `CN1CCN(C2=Nc3ccccc3Oc3ncccc32)CC1`, the inhibition in vivo at 20 mg/kg in the assay listed under Rattus norvegicus [1] is 0%. In addition, the “-Log Ki” value is listed as 5.47 in assay [2] and 5.85 in assay [3]. Besides, on D(1A) dopamine receptor, the Ki is 2.4 µM.
Take `CN1CCN(C2=Nc3cc(F)ccc3Cc3ccccc32)CC1` [FLUPERLAPINE]: in assay [3], the “-Log Ki” value came out at 8.41.
`CN1CCN(C2=Nc3ccccc3Sc3ccc(Cl)cc32)CC1` [CLOTHIAPINE]: the inhibition in vivo at 20 mg/kg in the assay listed under Rattus norvegicus [1] is 100%. Further, the “-Log Ki” value in assay [3] turned out to be 9.23. For the same compound, it took a dose of 0.72 mg/kg to reach the 50% effect level in the assay listed under Rattus norvegicus [4] (ED50).
As for `CN1CCN(C2=Nc3ccccc3Sc3ncccc32)CC1`, in the assay listed under Rattus norvegicus [1], the inhibition in vivo at 20 mg/kg is 0%. Further, the “-Log Ki” value in assay [2] came out at 5.61; in assay [3], 6.29. This compound also had a Ki on D(1A) dopamine receptor of 1.62 µM.

For the origin of these results see ChEMBL document CHEMBL1127331, “Pyridobenzoxazepine and pyridobenzothiazepine derivatives as potential central nervous system agents: synthesis and neurochemical study” (J Med Chem, 1994).
